Source: ChEMBL document CHEMBL3853319, “Tyrosine Kinase Inhibitors. 20. Optimization of Substituted Quinazoline and Pyrido[3,4-d]pyrimidine Derivatives as Orally Active, Irreversible Inhibitors of the Epidermal Growth Factor Receptor Family” (J Med Chem, 2016)
Blank lines part the entries; values can stand above or below the compound they belong to.

Legend:
in vitro [1] = details: rat, liver microsomes
in vitro [2] = details: human, liver microsomes
in vitro [3] = details: rat, hepatocytes
in vitro [4] = details: human, hepatocytes
[5] = Half life in Beagle dog at 50 mg/kg/day, po by LC/MS analysis; type: ADME, organism-based, Canis lupus familiaris; details: in vivo
[6] = Half life in overnight fasted cynomolgus monkey at 25 mg/kg/day, po by LC/MS analysis; type: ADME, organism-based, Macaca fascicularis; details: in vivo
[7] = Half life in overnight fasted cynomolgus monkey at 5 mg/kg/day, iv by LC/MS analysis; type: ADME, organism-based, Macaca fascicularis; details: in vivo
[8] = Half life in human plasma at 30 to 60 mg; type: ADME, cell-free
in vivo [9] = details: Sprague-Dawley, rat, po, 50 mg/kg
in vivo [10] = details: cynomolgus monkey, po, 25 mg/kg
in vivo [11] = details: Sprague-Dawley, rat, po, 50 mg/kg; remark: listed apart in the source
in vivo [12] = details: beagle, dog, po, 50 mg/kg
in vivo [13] = details: cynomolgus monkey, po, 25 mg/kg; remark: listed apart in the source
in vivo [14] = details: Sprague-Dawley, rat, iv, 5 mg/kg
in vivo [15] = details: beagle, dog, iv, 5 mg/kg
in vivo [16] = details: cynomolgus monkey, iv, 5 mg/kg
in vivo [17] = details: Sprague-Dawley, rat, iv, 5 mg/kg; remark: listed apart in the source
in vivo [18] = details: beagle, dog, iv, 5 mg/kg; remark: listed apart in the source
in vivo [19] = details: Sprague-Dawley, rat, po, 50 mg/kg; remark: listed apart in the source
in vivo [20] = details: Sprague-Dawley, rat, iv, 5 mg/kg; remark: listed apart in the source
in vivo [21] = details: beagle, dog, iv, 5 mg/kg; remark: listed apart in the source
in vivo [22] = details: Sprague-Dawley, rat, po, 50 mg/kg; remark: listed apart in the source
in vivo [23] = details: cynomolgus monkey, po, 25 mg/kg; remark: listed apart in the source
[24] = Terminal half life in patient plasma with advanced solid tumor administered at 75 mg; type: ADME; details: human, read-out: beta t1/2 (converted)

half-life at 5 µM (in vitro [1]): > 0.667 h | half-life at 5 µM (in vitro [2]): > 0.667 h | half-life at 1 µM (in vitro [3]): 1.68 h | half-life at 1 µM (in vitro [4]): 3.75 h
Compound: COc1cc2ncnc(Nc3ccc(F)c(Cl)c3)c2cc1OCCCN1CCOCC1 [GEFITINIB]

half-life [5]: 20.9 h | half-life [6]: 12.1 h | half-life [7]: 5.7 h | half-life [8]: 59 h | Cmax at 144 h (in vivo [9]): 630 ng/mL | Cmax at 144 h (in vivo [10]): 220 ng/mL | AUC at 144 h (in vivo [11]): 20500 ng·h/mL | AUC at 144 h (in vivo [12]): 25200 ng·h/mL | AUC at 144 h (in vivo [13]): 5400 ng·h/mL | AUC at 144 h (in vivo [14]): 2100 ng·h/mL | clearance at 144 h (in vivo [15]): 24.4 mL/min/kg | clearance at 144 h (in vivo [16]): 44.1 mL/min/kg | Vd at 144 h (in vivo [17]): 34.2 L/kg | Vd at 144 h (in vivo [18]): 28 L/kg | half-life (in vivo [19]): 19.4 h | half-life (in vivo [20]): 9.8 h | half-life (in vivo [21]): 15.9 h | bioavailability at 144 h (in vivo [22]): 80% | bioavailability at 144 h (in vivo [23]): 56% | half-life at 5 µM (in vitro [1]): > 0.667 h | half-life at 5 µM (in vitro [2]): > 0.667 h | half-life at 1 µM (in vitro [3]): 2.38 h | half-life at 1 µM (in vitro [4]): 4.15 h
Compound: COc1cc2ncnc(Nc3ccc(F)c(Cl)c3)c2cc1NC(=O)/C=C/CN1CCCCC1 [DACOMITINIB ANHYDROUS]

half-life [24]: 21.7 h
Compound: CCOc1cc2ncc(C#N)c(Nc3ccc(F)c(Cl)c3)c2cc1NC(=O)/C=C/CN(C)C [PELITINIB]
